Measured values: patent US8389724B2, “Crystalline salt forms of a 5,6,7,8-tetrahydro-1,2,4-triazolo[4,3-a]pyrazine derivative” (Corporacion Medichem, S.L., priority 2008, dated 2013)
Structures can show the parent of a compound that is named as a salt. Where two headings read alike, the source gives them in different places.

Columns and labels:
[1] = Stability studies of sitagliptin salts (10 months storage; HPLC, XRD, visual inspection); assay type: physicochemical; details: for Purity (HPLC) 10 months later / Aspect/Colour 10 months later / XRD analysis 10 months later: stored 10 months at room temperature, normal pressure, ambient atmosphere; for Aspect/Colour 10 months later: visual inspection; for Stability in terms of polymorphic form: after ten months of storage; for XRD analysis 10 months later: initial XRD Form I
Protocol: The XRD diffractograms were obtained using a RX SIEMENS D5000 diffractometer with a vertical goniometer, a copper anodic tube, and radiation CuKα, λ=1.54056.
Mobile phase A was a mixture of methanol and 5 mM dibasic sodium phosphate buffer, pH=7.0 (70:30, v/v). The buffer was prepared by dissolving 0.217 g of dibasic sodium phosphate in 300 mL of water and adjusting the pH of the solution to 7.0±0.1 with phosphoric acid, and filtered through a 0.22 μm nylon membrane under vacuum. Mobile phase B was methanol.
The following gradient was used: […]
The samples were analyzed after 10 months by HPLC, XRD, and visual inspection.

[2] = room temperature
[3] = listed as sitagliptin ethanedisulfonate Form I
[4] = listed as sitagliptin galactarate Form I

Compound | Purity (HPLC) 10 months later [1] [%] | Aspect/Colour 10 months later [1] | XRD analysis 10 months later [1] | other results
N[C@@H](CC(=O)N1CCn2c(nnc2C(F)(F)F)C1)Cc1cc(F)c(F)cc1F.N[C@@H](CC(=O)O)C(=O)O [L-aspartate, sitagliptin L-aspartate] | 97.14 | white |  | 
N[C@@H](CC(=O)N1CCn2c(nnc2C(F)(F)F)C1)Cc1cc(F)c(F)cc1F.O=S(=O)(O)CCS(=O)(=O)O [Ethane-disulfonate, sitagliptin ethanedisulfonate] | 99.83 | off-white | Form I | Stability in terms of polymorphic form [1]: highly stable; Purity (HPLC) 10 months later [1, 3]: higher than 99.8%; Descriptive term (solubility in water) [2]: Freely soluble; Descriptive term (solubility in water) [2, 3]: freely soluble
sitagliptin hemi-L-malate | 98.91 |  |  | 
sitagliptin acetate | 98.90 | off-white |  | 
sitagliptin oxalate | 95.95 | white | Form I | 
N[C@@H](CC(=O)N1CCn2c(nnc2C(F)(F)F)C1)Cc1cc(F)c(F)cc1F.O=C(O)[C@@H](O)[C@H](O)[C@H](O)[C@@H](O)C(=O)O [Galactarate, sitagliptin galactarate] | 99.15 | off-white | Form I | Stability in terms of polymorphic form [1]: highly stable; Purity (HPLC) 10 months later [1, 4]: higher than 99.1%; Descriptive term (solubility in water) [2]: Sparingly soluble; Descriptive term (solubility in water) [2, 4]: sparingly soluble
N[C@@H](CC(=O)N1CCn2c(nnc2C(F)(F)F)C1)Cc1cc(F)c(F)cc1F [Hydrobromide, sitagliptin hydrobromide] | 98.92 | off-white | Form I | 
sitagliptin succinate | 98.88 | off-white |  | 
NC(CC(=O)N1CCn2c(nnc2C(F)(F)F)C1)Cc1cc(F)c(F)cc1F.O=C(O)C(O)C(O)C(O)C(O)CO [D-Gluconate, sitagliptin D-gluconate] | 96.29 | beige |  | 
sitagliptin (S)-pyroglutamate | 98.64 | off-white |  | 
N#CS.N[C@@H](CC(=O)N1CCn2c(nnc2C(F)(F)F)C1)Cc1cc(F)c(F)cc1F [Thiocyanate, sitagliptin thiocyanate] | 99.22 | light pink | Form I | Stability in terms of polymorphic form [1]: highly stable; Purity (HPLC) 10 months later ([1]; listed as sitagliptin thiocyanate Form I): higher than 99.2%
